Experimental data published in patent US8314240B2, “Sulfonamide compounds or salts thereof” (Astellas Pharma Inc., priority 2008, dated 2012).

Assays:
[1] = target: T1, rat EP1 receptor (Rattus norvegicus, UniProt P70597); experiment: Test to measure receptor antagonistic activity using EP1 receptor-expressing cells (PGE2-induced intracellular Ca change, FLIPR); format: cell-based; settings: HEK293 cells stably expressing rat EP1 receptor, 100 nM PGE2
T1 construct: expressed in transfected cells
T1 sequence (P70597 1-405): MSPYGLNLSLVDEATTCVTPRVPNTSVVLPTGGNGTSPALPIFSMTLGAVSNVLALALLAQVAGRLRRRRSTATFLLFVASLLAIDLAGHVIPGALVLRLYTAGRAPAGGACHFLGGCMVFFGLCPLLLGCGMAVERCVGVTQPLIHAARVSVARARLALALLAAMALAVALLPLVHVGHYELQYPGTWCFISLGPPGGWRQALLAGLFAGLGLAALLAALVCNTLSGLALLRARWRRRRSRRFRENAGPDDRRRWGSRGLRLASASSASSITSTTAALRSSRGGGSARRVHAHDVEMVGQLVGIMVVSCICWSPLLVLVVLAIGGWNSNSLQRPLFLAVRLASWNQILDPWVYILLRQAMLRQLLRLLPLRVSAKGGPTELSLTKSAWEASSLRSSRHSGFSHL
Procedure: Test Example 1 Test to Measure Receptor Antagonistic Activity Using EP1 Receptor-Expressing Cells
HEK293 cells (American Type Culture Collection) that stably expressed rat EP1 receptor were dispensed onto a 96-well poly-D-lysine-coated plate (product name: BIOCOAT, PDL96W black/clear, by Nippon Becton Dickinson) at 2×10^4 cells/well on the day before the experiment, and incubated overnight at 37° C. under 5% carbon dioxide (CO2) in a culture medium containing 10% fetal bovine serum (FBS) (product name: DMEM, Invitrogen). The culture medium was replaced with a loading buffer (a washing solution containing 4 μM of fluorescent-labeled indicator (product name: Fluo3-AM, Dojindo): Hank's balanced salt solution (HBSS), 20 mM 2-[4-(2-hydroxyethyl)-1-piperazinyl]ethanesulfonic acid (HEPES)-sodium hydroxide (NaOH), 2.5 mM Probenecid, and 0.1% bovine serum albumin (BSA)), and left to stand at room temperature for 3 hours, and the cells were washed using a plate washer (product name: ELx405, Bio-Tek Instruments, Inc.) in which the washing solution had been set up. The compound that had been preliminarily dissolved and diluted in the washing solution was added thereto, and set up in a system for measuring the intracellular calcium (Ca) concentration (product name: FLIPR, Molecular Devices, Inc.). After 5 minutes, PGE2 was added to a final concentration of 100 nM, and the change in intracellular Ca concentration was measured. The difference between a maximum value and a minimum value in the intracellular Ca concentration change was determined, and retained as measurement data. When a response with addition of 100 nM PGE2 was taken as 0% and a response with addition of a buffer was taken as 100%, the concentration causing 50% inhibition was determined as an IC50 value. Further, in the table, Ex represents Example numbers as described later.

[2] = Test on metabolic stability in human liver microsome; format: in vitro ADME; settings: human liver microsomes, pH 7.4; human liver microsome 0.2 mg protein/ml, 37° C. 15 minutes, in vitro clearance by integration plot
Procedure: Test Example 5 Test on Metabolic Stability in Human Liver Microsome
Using a glass test tube, a test compound and human liver microsome (0.2 mg protein/ml) were incubated at 37° C. for 15 minutes in a 100 mM phosphate buffer (pH=7.4) containing 0.1 mM EDTA and 1 mM NADPH. Thereafter, the reaction was stopped by adding an aqueous solution containing 80% acetonitrile. Thereafter, each sample was analyzed by HPLC and the in vitro clearance (CLint) was calculated by an integration plot.

[3] = target: T2, CYP3A4 (Homo sapiens, UniProt P08684); experiment: Cytochrome P450 (CYP) 3A4 enzyme inhibition, Inhibition Test I; format: in vitro ADME; settings: human liver microsomes, probe midazolam; human liver microsome 0.1 mg protein/ml, substrate midazolam, 37° C. 20 minutes; read-out: Inhibitory activity I (%)
T2 construct: human liver microsome (0.1 mg protein/ml); from tissue; host or cells: human liver microsome
Procedure: (§1) Test Example 4 Test on Cytochrome P450 (CYP) 3A4 Enzyme Inhibition (Evaluation of Drug Interaction)
(1) Inhibition Test I (Calculation of Inhibitory Activity I)
Using a 96-well plate, a substrate (midazolam), a test compound and human liver microsome (0.1 mg protein/ml) were incubated at 37° C. for 20 minutes in a 100 mM phosphate buffer containing 0.1 mM EDTA and 1 mM NADPH. Then, the reaction was stopped by adding an aqueous solution containing 80% acetonitrile. Thereafter, each sample was analyzed by LC/MS, and the inhibitory activity I was calculated using the following formula. Inhibitory Activity I(%)=100−Vi.I/V0.I×100
Vi,I: Metabolic rate of substrate in the presence of the test compound at a known concentration in the inhibition test I
V0,I: Metabolic rate of substrate in the absence of the test compound in the inhibition test I

[4] = target: T2, CYP3A4; experiment: Cytochrome P450 (CYP) 3A4 enzyme inhibition, Inhibition Test II (preincubation); format: in vitro ADME; settings: human liver microsomes, pH 7.4, probe midazolam; human liver microsome 0.1 mg protein/ml, 30 minutes preincubation with test compound, then midazolam 20 minutes; read-out: Inhibitory activity II (%)
Procedure: as §1
(2) Inhibition Test II (Calculation of Inhibitory Activity II)
Using a 96-well plate, a test compound and human liver microsome (0.1 mg protein/ml) were incubated at 37° C. for 30 minutes in a total amount of 145 μl of 100 mM phosphate buffer (pH=7.4) containing 0.1 mM EDTA and 1 mM NADPH. Then, midazolam as the substrate was added thereto and incubated at 37° C. for 20 minutes. After the incubation, the reaction was stopped by adding an aqueous solution containing 80% acetonitrile. Thereafter, each sample was analyzed by LC/MS, and the inhibitory activity II was calculated using the following formula. Inhibitory Activity II(%)=100−Vi,II/V0,II/(100-inhibitory activity I(%))×100×100
Vi,II: Metabolic rate of substrate in the presence of the test compound at a known concentration in the inhibition test II
V0,II: Metabolic rate of substrate in the absence of the test compound in the inhibition test II

T2 sequence (P08684 whole entry): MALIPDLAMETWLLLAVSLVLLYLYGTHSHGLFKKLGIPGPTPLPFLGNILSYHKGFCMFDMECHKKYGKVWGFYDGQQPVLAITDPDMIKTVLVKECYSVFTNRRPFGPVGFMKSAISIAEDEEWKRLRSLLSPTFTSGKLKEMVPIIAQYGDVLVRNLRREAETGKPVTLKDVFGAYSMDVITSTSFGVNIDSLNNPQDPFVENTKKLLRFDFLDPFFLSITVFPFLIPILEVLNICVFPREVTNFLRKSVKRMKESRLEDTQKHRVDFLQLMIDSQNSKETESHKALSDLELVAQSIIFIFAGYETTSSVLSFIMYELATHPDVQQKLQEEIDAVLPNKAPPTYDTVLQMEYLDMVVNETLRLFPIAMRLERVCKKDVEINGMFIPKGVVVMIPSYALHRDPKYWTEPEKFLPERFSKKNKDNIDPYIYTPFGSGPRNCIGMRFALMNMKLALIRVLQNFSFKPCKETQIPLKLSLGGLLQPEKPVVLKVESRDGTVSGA

| SMILES | IC50 [1] | CLint scaled [2] | inhibition at 20 min [3] | inhibition at 20 min [4] |
| --- | --- | --- | --- | --- |
| Cc1csc(S(=O)(=O)N(C[C@H](C)F)c2cc3c(cc2OCc2ccc(C(=O)O)c(F)c2)CCC3)n1 [Example 113] | 0.9 nM |  |  |  |
| Cc1cc(OCc2ccc(C(=O)O)cc2)c(N(C[C@@H](C)CF)S(=O)(=O)c2ccccn2)cc1C [Example 117] | 1.9 nM | 58 mL/min/kg | 3% | 5% |
| C[C@@H](F)CN(c1cc2c(cc1OCc1ccc(C(=O)O)cc1)CCC2)S(=O)(=O)c1ccccn1 [Example 102] | 1.8 nM | 244 mL/min/kg | 1% | 0% |
| Cc1csc(S(=O)(=O)N(CC(C)F)c2cc3c(cc2OCc2ccc(C(=O)O)s2)CCC3)n1 (stereo not shown) [Example 80] | 0.85 nM | 212 mL/min/kg |  |  |

Compounds with a lower IC50 [1], results first:

| IC50 [1] | CLint scaled [2] | inhibition at 20 min [3] | inhibition at 20 min [4] | SMILES |
| --- | --- | --- | --- | --- |
| 0.53 nM |  |  |  | Cc1csc(S(=O)(=O)N(CC(C)F)c2cc3c(cc2OCc2ccc(C(=O)O)cc2C)CCC3)n1 (stereo not shown) [Example 66] |
| 0.4 nM | 228 mL/min/kg | 12% | 7% | C[C@H](F)CN(c1cc2c(cc1OCc1ccc(C(=O)O)cc1)CCC2)S(=O)(=O)c1cccnc1 [Example 103] |
| 0.32 nM | 153 mL/min/kg |  |  | Cc1csc(S(=O)(=O)N(CC(C)F)c2cc(C)c(Cl)cc2OCc2ccc(C(=O)O)cc2)n1 (stereo not shown) [Example 71] |
| 0.3 nM |  |  |  | Cc1cc(C(=O)O)ccc1COc1cc2c(cc1N(CC(C)F)S(=O)(=O)c1cc(F)cc(F)c1)CCC2 (stereo not shown) [Example 63] |
